Measurements reported in patent US20140066385A1, “METHOD FOR TREATING CANCER BY COMBINED USE OF DRUGS” (Astellas Pharma Inc., priority 2011, published 2014).

How the values were obtained:
[1] = tested on: human non-small cell lung cancer (Calu-6); assay: Example 2: FK330 with multicycle paclitaxel in Calu-6 tumor-bearing mice; type: in vivo, nude mice; conditions: for tumor volume reduction ratio compared with the paclitaxel-only group: FK330 100 mg/kg bid p.o. continuously + paclitaxel 10 mg/kg/day i.v. multicycle, P<0.01
Procedure: The dose of FK330 is expressed in weight including the hydrate. A paclitaxel injectable preparation (paclitaxel injection liquid, “Sawai”) was purchased from Sawai Pharmaceutical Co., Ltd., and was used as paclitaxel.
FK330 was suspended (20 mg/mL) in a 0.5% aqueous methyl cellulose solution (0.5% MC). Paclitaxel was prepared with physiological saline for injection (Otsuka Pharmaceutical Group) to a concentration of 1 mg/mL at the time of use.
(§1) Human lung cancer-derived Calu 6 (HTB-56) was obtained from American Type Culture Collection (VA, USA). The cells were cultured under the conditions of 37° C. and 5% CO2 by using RPMI1640 medium containing 10% heat-inactivated fetal bovine serum (FBS). The cells were harvested with trypsin and were suspended in PBS at 6×10^7 cells/mL, and the suspension was mixed with an equal amount of Matrigel (trade name) Basement Membrane Matrix (manufactured by Becton Dickinson Co., Bedford, Mass., USA).
Five-week old male nude mice (CAnN Cg-Foxn1nu/CrICrlj(nu/nu)) were purchased from Charles River Laboratories Japan, Inc. (Japan, Kanagawa). The animals were raised under specific pathogen-free (SPF) conditions throughout the test period by feeding standard feedstuff and drinking water. The cultured cells were subcutaneously inoculated into the dorsal region of the nude mice at a concentration of 3×10^6 cells/0.1 mL/mouse. Nude mice which had the tumor volumes (major axis×[minor axis]^2×0.52) ranging from 136.5 mm^3 to 299.0 mm^3 were assigned by using SAS to minimize the fluctuation in the tumor volume between the groups and within the group.
The first day of administration was designated as Day 1, and observation was made until Day 83. The respective groups (n=6) were treated as follows. FK330 was orally gavaged in an amount of 5 mL/kg, and paclitaxel was administered intravenously through the tail vein in an amount of 10 mL/kg. Paclitaxel was continuously administered from Day 1 to Day 7, and then was withdrawn for 23 days (1 cycle). In the administration of PTX in the second cycle and the third cycle, PTX was continuously administered for 6 days from Day 31 and from Day 60, respectively. […]
(§2) Every 2 to 4 days, the body weight and the tumor diameters, determined by using a digital caliper, were measured. The tumor volume was calculated from the calculation formula for ellipsoid volume of (major axis×[minor axis]^2×0.52).
The results are expressed as the mean value (Mean)±standard error (SEM). […] Using the actual measured values of the tumor volume at the end of the study, an unpaired statistical test (Student's t-test) of the difference between two groups was carried out between a single administration group and a combined use group. […]

[2] = tested on: human gastric cancer (NCI-N87); assay: Example 5: FK330 with paclitaxel in NCI-N87 tumor-bearing mice; type: in vivo, nude mice; conditions: for tumor volume on the last day of experiment: NCI-N87, Day 56, mean±SEM
Procedure: Preparation of the test substances was carried out in the same manner as in Example 2.
as §1, with “gastric” for “lung”, “NCI-N87 (CRL-5822)” for “Calu 6 (HTB-56)”, “USA), MKN-28 (JCRB0253) was obtained from Health Science Research Resources Bank (HSRRB), and AZ-521 (RCB2087) was obtained from Riken BRC. NCI-N87 and MKN-28” for “USA). The”, “(FBS), and AZ-521 cells were cultured under the conditions of 37° C. and 5% CO2 by using DMEM medium containing 10% heat-inactivated FBS.” for “(FBS).”
Five-week old male nude mice (CAnN Cg-Foxn1nu/CrlCrlj(nu/nu)) were purchased from Charles River Laboratories Japan, Inc. (Japan, Kanagawa). The animals were raised under specific pathogen-free (SPF) conditions throughout the test period by feeding standard feedstuff and drinking water. The cultured cells were subcutaneously inoculated into the dorsal region of the nude mice at a concentration of 3×10^6 cells/0.1 mL/mouse. […]
as §2
The results are expressed as the mean value (Mean)±standard error (SEM). Using the actual measured values of the tumor volume at each measurement time point, an unpaired statistical test (Student's t-test) of the difference between two groups was carried out between a single administration group and a combined use group. […]

Row | SMILES | tumor volume reduction ratio compared with the paclitaxel-only group ([1]; Day 29) [%] | tumor volume reduction ratio compared with the paclitaxel-only group ([1]; Day 60) [%] | tumor volume reduction ratio compared with the paclitaxel-only group ([1]; Day 83) [%] | tumor volume on the last day of experiment ([2]; combined use group paclitaxel + FK330 100 mg/kg bid) [mm^3] | tumor volume decrease compared with the paclitaxel-only group ([2]; NCI-N87, last day, FK330 100 mg/kg bid + paclitaxel, P<0.03) [%] | anti-tumor effect of paclitaxel as a result of multicycle administration ([1]; paclitaxel 10 mg/kg/day i.v. alone, three cycles, until Day 83) | tumor volume on the last day of experiment ([2]; paclitaxel-only group 10 mg/kg/day i.v., two cycles) [mm^3]
1 | O=C(/C=C/c1ccc(Cl)cc1)N[C@@H](Cc1ccccn1)C(=O)NCC(=O)N1CCC(Oc2cc(C(F)(F)F)ncn2)CC1 [FK330, N^2-[(2E)-3-(4-chlorophenyl)-2-propenoyl]-N-[2-oxo-2-(4-{[6-(trifluoromethyl)pyrimidin-4-yl]oxy}piperidin-1-yl)ethyl]-3-pyridin-2-yl-L-alaninamide] | 57.6 | 86.1 | 87.6 | 223.9±85.1 | 54.5 | – | –
2 | CC(=O)O[C@H]1C(=O)[C@@]2(C)[C@H]([C@H](OC(=O)c3ccccc3)[C@]3(O)C[C@H](OC(=O)[C@H](O)[C@@H](NC(=O)c4ccccc4)c4ccccc4)C(C)=C1C3(C)C)[C@]1(OC(C)=O)CO[C@@H]1C[C@@H]2O [paclitaxel, reference compound] | – | – | – | – | – | tended to attenuate | 492.0±48.5
